Results reported in patent publication US10131619B2, “α-Asary-laldehyde ester, preparation method therefor, and application thereof” (NORTHWEST UNIVERSITY, priority 2014, dated 2018).
Marks after values point to notes of the source that are not given here.

What was measured:
[1] = test system: KM mice; test: Maximal Electroshock Seizure (MES) test; format: in vivo; conditions: for MES: 6 mice
Protocol: (§1) The antiepileptic pharmacological tests were carried out using the anti-epileptic drug development program implemented by the National Institutes of Health (NIH), comprising the Maximal Electroshock Seizure (MES) for evaluating antiepileptic activity and the Rotarodtest for examining neurotoxicity. In order to further study and evaluate the pharmacological mechanism of anticonvulsant effect in different chemical models, two classic chemical model pentarotetrazole and 3-mercaptopropionic acid were used.
(1) Maximal Electroshock Seizure (MES)
Procedure: KM mice were subjected to the following preliminary screening before they were tested, and only qualified mice were screened for the next experiment. The screening method was performed as follows: the day before the test, the test mice electrically stimulated at 15V, 60 Hz, wherein two electrodes were clamped in each ear of the mice and powered for 0.45 seconds. Mice with hind limb rigidity were included in the experimental mice and used for later experiments. The Maximal Electroshock Seizure tolerance test was performed as follows: mice were administered intragastrically with the test compound after it is dissolved, and then at 0.25 h, 0.5 h, 1 h, 2 h, 3 h and 4 h after the administration, stimulated with the electrodes in their ears at 15V, 60 Hz electric stimulation for 0.45 s, respectively. […] According to the dosing regimen, concentration gradient was designed and the mice were administered with the test compound at different concentration gradient and observed for the anticonvulsant activity. Finally, the half effective dose of the test compound at the maximum anticonvulsant activity was calculated according to the following equation: ED50=1 g^−1[Xm−i(ΣP−0.5)] SX50=i(ΣP−ΣP^2/n−1)^1/2 • 95% confidence limit for ED50=1 g^−1(1 gED50±1.96 SX50) • wherein the meanings of the symbols in the equation are as follows: • Xm common logarithm for the maximum dose; • i common logarithm for the ratio between doses • p positive rate for each group, expressed in decimal places • n the number of animals per group • SX50 standard error of 1 gED50

[2] = test system: 3-mercaptopropionic acid-induced epilepsy mice model; test: 3-mercaptopropionic acid-induced epilepsy experimental model; format: in vivo; conditions: for clonic seizures / latency / mortality rate / tonic seizures: n=6
Excerpt: (4) 3-mercaptopropionic Acid-induced Epilepsy Experimental Model

[3] = test system: pentylenetetrazole-induced epilepsy mice model; test: Pentylenetetrazole-induced epilepsy experimental model; conditions: for clonic seizures / latency / mortality rate / tonic seizures: n=6
Procedure: In order to deduce the possible anticonvulsant mechanism of α-Asaronol 3,4,5-trimethoxycinnamate, in this study, pentylenetetrazole, 3-mercaptopropionic acid and other chemical test modes were used to initially evaluate the anticonvulsant activity of the test compound (i.g: 160 mg/kg, 80 mg/kg, 40 mg/kg).
(3) Pentylenetetrazole-induced Epilepsy Experimental Model
Procedure: mice were randomly divided into five groups: treatment group (i.g: 160 mg/kg, 80 mg/kg, 40 mg/kg), control group and blank group (n=6). The treatment group was intragastrically administrated with the test compound, the control group with the positive drug carbamazepine, and the blank group with physiological saline. After 30 minutes, the mice were intragastrically administrated with pentylenetetrazole at 200 mg/kg. Each test animal was placed in one cage and observed for 60 minutes. The latency of clonic seizures, the number of clonic seizures, the number of tonic seizures, and the number of deaths for mice of each group were recorded.

[4] = test system: mice; test: Neurotoxicity test (Rotarod test); format: in vivo
Protocol: as §1
(§2) Procedure: experimental mice were place on a rotating bar fatigue device rotating at 16 revolutions per minute at 0.25 h, 0.5 h, 1 h, and 2 h after intragastric administration, respectively. […] According to the dosing regimen, concentration gradient was designed and the mice was administered with the test compound at different concentration gradient and observed for the anticonvulsant activity. Half toxic dose (TD50) was calculated according to the following equation: TD50=1 g^−1[Xm−i(ΣP−0.5)] SX50=i(ΣP−σP^2/n−1)^1/2 • 95% confidence limit for TD50=1 g^−1(1 gTD50±1.96 SX50) • wherein the meanings of the symbols in the equation are as follows: • Xm common logarithm for the maximum dose; • i common logarithm for the ratio between doses • p positive rate for each group, expressed in decimal places • n the number of animals per group • SX50 standard error of 1 gTD50

[5] = Neurotoxicity test (Rotarod test); format: in vivo; conditions: KM, mouse, in vivo, po
Protocol: as §1, §2

[6] = test system: mice; conditions: Wang S. S. 1995; cited from earlier work

SMILES: COc1cc(OC)c(OC)cc1/C=C/COC(=O)/C=C/c1cc(OC)c(OC)c(OC)c1
- ED50 ([1]; Mus musculus, po, MES, mice, i.g., 95% confidence limit 63.1-128.8, read-out: ED50 (half effective dose)): 90.3 mg/kg
- MES ([1]; i.g. 40 mg/kg, 0.25 h): 4/6
- MES ([1]; i.g. 40 mg/kg, 0.5 h): 5/6
- MES ([1]; i.g. 40 mg/kg, 1 h): 6/6
- MES ([1]; i.g. 40 mg/kg, 2 h): 6/6
- MES ([1]; i.g. 40 mg/kg, 3 h): 6/6
- MES ([1]; i.g. 40 mg/kg, 4 h): 6/6
- MES ([1]; i.g. 56 mg/kg, 0.25 h): 3/6
- MES ([1]; i.g. 56 mg/kg, 0.5 h): 4/6
- MES ([1]; i.g. 56 mg/kg, 1 h): 4/6
- MES ([1]; i.g. 56 mg/kg, 2 h): 5/6
- MES ([1]; i.g. 56 mg/kg, 3 h): 5/6
- MES ([1]; i.g. 56 mg/kg, 4 h): 5/6
- MES ([1]; i.g. 78 mg/kg, 0.25 h): 3/6
- MES ([1]; i.g. 78 mg/kg, 0.5 h): 3/6
- MES ([1]; i.g. 78 mg/kg, 1 h): 3/6
- MES ([1]; i.g. 78 mg/kg, 2 h): 3/6
- MES ([1]; i.g. 78 mg/kg, 3 h): 4/6
- MES ([1]; i.g. 78 mg/kg, 4 h): 4/6
- MES ([1]; i.g. 110 mg/kg, 0.25 h): 2/6
- MES ([1]; i.g. 110 mg/kg, 0.5 h): 1/6
- MES ([1]; i.g. 110 mg/kg, 1 h): 1/6
- MES ([1]; i.g. 110 mg/kg, 2 h): 2/6
- MES ([1]; i.g. 110 mg/kg, 3 h): 3/6
- MES ([1]; i.g. 110 mg/kg, 4 h): 3/6
- MES ([1]; i.g. 154 mg/kg, 0.25 h after administration): 1/6^c
- MES ([1]; i.g. 154 mg/kg, 0.5 h): 0
- MES ([1]; i.g. 154 mg/kg, 1 h): 1/6
- MES ([1]; i.g. 154 mg/kg, 2 h): 1/6
- MES ([1]; i.g. 154 mg/kg, 3 h): 3/6
- MES ([1]; i.g. 154 mg/kg, 4 h): 3/6
- anticonvulsant activity in the Maximal Electroshock Seizure test (in words) ([1]; mice, i.g.): good anticonvulsant activity
- effect on inhibiting the tonic seizure and reducing the mortality compared with carbamazepine ([2]; 160 mg/kg, 80 mg/kg): comparable effect
- time of clonic seizure compared with the physiological saline group ([2]; 160 mg/kg, 80 mg/kg, p<0.05): significantly prolong
- clonic seizures ([2]; i.g. 40 mg/kg): 100%
- latency ([2]; i.g. 40 mg/kg): 185.3 ± 39.8 s
- mortality rate ([2]; i.g. 40 mg/kg): 50%
- tonic seizures ([2]; i.g. 40 mg/kg): 50%
- clonic seizures ([2]; i.g. 80 mg/kg): 83.3%
- latency ([2]; i.g. 80 mg/kg): 192.8 ± 85.1 s
- mortality rate ([2]; i.g. 80 mg/kg): 33.3%
- tonic seizures ([2]; i.g. 80 mg/kg): 33.3%
- latency ([2]; i.g. 160 mg/kg, 30 min before 3-mercaptopropionic acid 60 mg/kg): 241.5 ± 80.4 s
- clonic seizures ([2]; i.g. 160 mg/kg): 50%
- mortality rate ([2]; i.g. 160 mg/kg): 33.3%
- tonic seizures ([2]; i.g. 160 mg/kg): 33.3%
- 3-mercaptopropionic acid-induced seizures (in words) ([2]; mouse, in vivo): moderately reduce
- time of clonic seizure compared with the physiological saline group ([3]; 160 mg/kg, 80 mg/kg, 40 mg/kg, p<0.05): significantly prolong
- effect on inhibiting the tonic seizure and reducing the mortality compared with carbamazepine ([3]; at the same dose): comparable effect
- clonic seizures ([3]; i.g. 40 mg/kg): 100%
- latency ([3]; i.g. 40 mg/kg): 205.6 ± 40.5 s
- mortality rate ([3]; i.g. 40 mg/kg): 100%
- tonic seizures ([3]; i.g. 40 mg/kg): 50%
- clonic seizures ([3]; i.g. 80 mg/kg): 83.3%
- latency ([3]; i.g. 80 mg/kg): 253.6 ± 58.2 s
- mortality rate ([3]; i.g. 80 mg/kg): 66.7%
- tonic seizures ([3]; i.g. 80 mg/kg): 33.3%
- latency ([3]; i.g. 160 mg/kg, 30 min before pentylenetetrazole 200 mg/kg): 370.0 ± 84.8 s
- clonic seizures ([3]; i.g. 160 mg/kg): 50%
- mortality rate ([3]; i.g. 160 mg/kg): 16.7%
- tonic seizures ([3]; i.g. 160 mg/kg): 33.3%
- PI, protection index (TD50/ED50) ([4]; mice, i.g., rotarod TD50 / MES ED50): 10.4
- toxicity (in words) ([4]; mouse, in vivo): did not show significant toxicity
- TD50 [5]: 940 mg/kg

SMILES: COC(=O)C=Cc1cc(OC)c(OC)c(OC)c1 [M-TMCA, methyl 3,4,5-trimethoxycinnamic acid]
- time of pentobarbital sodium-induced sleep in mice [6]: prolong

SMILES: COc1ccc(C=CC(=O)O)cc1 [PMCA, p-methoxycinnamic acid]
- time of pentobarbital sodium-induced sleep in mice [6]: prolong

SMILES: COc1cc(C=CC(=O)O)cc(OC)c1OC [TMCA, 3,4,5-trimethoxycinnamic acid]
- time of pentobarbital sodium-induced sleep in mice [6]: prolong

SMILES: NC(=O)N1c2ccccc2C=Cc2ccccc21 [carbamazepine, reference compound]
- clonic seizures ([2]; i.g. 83 mg/kg): 100%
- latency ([2]; i.g. 83 mg/kg): 277.2 ± 93.1 s
- mortality rate ([2]; i.g. 83 mg/kg): 33.3%
- tonic seizures ([2]; i.g. 83 mg/kg): 33.3%
- clonic seizures ([3]; i.g. 83 mg/kg): 100%
- latency ([3]; i.g. 83 mg/kg): 476.8 ± 100.5 s
- mortality rate ([3]; i.g. 83 mg/kg): 50%
- tonic seizures ([3]; i.g. 83 mg/kg): 33.3%
